Counter-ions that a name gives are not always drawn.
Columns and labels:
pH = format: physicochemical
[1] = free base form of the drug named as HCl salt; cited from earlier work

C#CCN(C)[C@H](C)Cc1ccccc1 [Selegiline free base, selegiline]
solubility in water (Solubility in water): only sparingly soluble in water

CCN(CC)CC [Triethylamine]
calculated pH (pH): approximately 13.7 | measured pH (pH): approximately 11.7

Clc1cccc(Cl)c1N=C1NCCN1 [clonidine-HCl]
pKb of the free base form [1]: 7

C#CCN(C)[C@H](C)Cc1ccccc1 [selegiline-HCl]
solubility in water (Solubility in water): readily soluble in water

phenylpropranolol-HCl
pH of the free base form (pH; free base form): approximately 13

Source: patent US7638140B2, “Adhesive mixture for transdermal delivery of highly plasticizing drugs” (priority 1997, dated 2009)
